Molecules are shown by their SMILES. Some results are limits rather than exact numbers.

In series [1] the target is T1, Mycocyclosin synthase (Mycobacterium tuberculosis, UniProt P9WPP7).
T1 sequence (P9WPP7 whole entry): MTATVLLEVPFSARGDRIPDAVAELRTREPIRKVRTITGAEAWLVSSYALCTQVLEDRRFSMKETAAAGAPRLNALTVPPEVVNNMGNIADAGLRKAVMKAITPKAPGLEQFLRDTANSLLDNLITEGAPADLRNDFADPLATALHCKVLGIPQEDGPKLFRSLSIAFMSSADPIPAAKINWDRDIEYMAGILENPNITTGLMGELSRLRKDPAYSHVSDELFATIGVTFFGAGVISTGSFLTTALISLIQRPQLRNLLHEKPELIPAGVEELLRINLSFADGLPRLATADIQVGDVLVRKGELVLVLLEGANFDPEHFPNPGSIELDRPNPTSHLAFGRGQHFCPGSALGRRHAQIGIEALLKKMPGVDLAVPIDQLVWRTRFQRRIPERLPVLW
Also on record: species or system C41(DE3).

Series [2] has as its target T1, Mycocyclosin synthase. Also on record: species or system C41(DE3). The source holds these as a separate data set.
The test system of series [3] is Mycobacterium tuberculosis. Kind of series: Antimycobacterial activity against Mycobacterium tuberculosis H37Rv assessed as bacterial growth inhibition after 2 weeks. It counts as functional. As to conditions: 336 h.
Series [4] in a line: Inhibition of CYP1A1/CYP1A2 in human liver microsomes using ethoxyresorufin as substrate by fluorescence analysis. It counts as ADME.
For the next series, the target named is Cytochrome P450 2C9 (Homo sapiens, UniProt P11712). Description: Inhibition of CYP2C9 in human liver microsomes using tolbutamide as substrate by LC-MS/MS analysis. It is filed as ADME.
Cytochrome P450 2C9, sequence (P11712 whole entry): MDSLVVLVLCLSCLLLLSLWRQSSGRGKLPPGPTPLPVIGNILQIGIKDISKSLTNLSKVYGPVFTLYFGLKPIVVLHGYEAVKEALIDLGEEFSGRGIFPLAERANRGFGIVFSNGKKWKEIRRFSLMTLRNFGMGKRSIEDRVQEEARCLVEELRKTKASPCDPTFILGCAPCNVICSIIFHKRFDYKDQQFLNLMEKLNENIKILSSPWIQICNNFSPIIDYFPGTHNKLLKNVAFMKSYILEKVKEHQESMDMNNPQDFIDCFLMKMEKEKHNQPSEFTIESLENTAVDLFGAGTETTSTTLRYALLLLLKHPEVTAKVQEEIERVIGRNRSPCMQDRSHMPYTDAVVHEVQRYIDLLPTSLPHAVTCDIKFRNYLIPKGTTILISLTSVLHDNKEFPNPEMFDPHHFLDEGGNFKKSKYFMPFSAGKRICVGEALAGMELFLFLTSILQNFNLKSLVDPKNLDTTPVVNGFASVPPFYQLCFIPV
For the next series, the target named is Cytochrome P450 2C19 (Homo sapiens, UniProt P33261). Kind of series: Inhibition of CYP2C19 in human liver microsomes using mephenytoin as substrate by LC-MS/MS analysis. It counts as ADME. In general terms: Microsomes from liver hold many membrane-bound enzymes, among them those of drug oxidation.
Cytochrome P450 2C19, sequence (P33261 whole entry): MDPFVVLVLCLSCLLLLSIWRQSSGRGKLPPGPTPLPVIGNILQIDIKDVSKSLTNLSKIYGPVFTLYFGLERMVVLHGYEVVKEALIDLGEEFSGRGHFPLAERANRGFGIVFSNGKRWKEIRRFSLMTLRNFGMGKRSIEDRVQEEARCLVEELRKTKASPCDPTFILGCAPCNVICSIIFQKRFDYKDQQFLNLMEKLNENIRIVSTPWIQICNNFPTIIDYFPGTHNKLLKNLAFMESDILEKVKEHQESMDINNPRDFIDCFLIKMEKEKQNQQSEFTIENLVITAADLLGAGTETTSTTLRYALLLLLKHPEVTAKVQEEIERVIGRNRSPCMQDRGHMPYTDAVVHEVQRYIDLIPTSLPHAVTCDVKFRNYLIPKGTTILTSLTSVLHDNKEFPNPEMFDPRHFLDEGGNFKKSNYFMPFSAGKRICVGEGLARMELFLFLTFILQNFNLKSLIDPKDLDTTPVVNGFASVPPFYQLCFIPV
In a further series the target is Cytochrome P450 2D6 (Homo sapiens, UniProt P10635). Kind of series: Inhibition of CYP2D6 in human liver microsomes using dextromethorphan as substrate by LC-MS/MS analysis. It is filed as ADME.
Cytochrome P450 2D6, sequence (P10635 whole entry): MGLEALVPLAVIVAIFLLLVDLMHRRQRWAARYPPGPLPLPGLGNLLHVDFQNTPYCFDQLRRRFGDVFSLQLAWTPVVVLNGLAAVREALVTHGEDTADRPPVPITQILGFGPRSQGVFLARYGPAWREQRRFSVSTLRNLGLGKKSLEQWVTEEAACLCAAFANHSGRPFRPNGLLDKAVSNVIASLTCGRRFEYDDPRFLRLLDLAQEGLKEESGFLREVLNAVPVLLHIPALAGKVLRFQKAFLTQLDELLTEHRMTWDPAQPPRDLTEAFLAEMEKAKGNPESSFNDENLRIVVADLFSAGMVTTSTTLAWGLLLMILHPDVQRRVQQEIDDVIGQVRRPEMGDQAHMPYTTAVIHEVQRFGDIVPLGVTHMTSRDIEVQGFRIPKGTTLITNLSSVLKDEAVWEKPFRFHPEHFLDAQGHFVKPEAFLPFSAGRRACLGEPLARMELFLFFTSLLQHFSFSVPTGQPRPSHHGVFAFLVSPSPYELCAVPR
The target of another series is Cytochrome P450 3A4 (Homo sapiens, UniProt P08684).
Cytochrome P450 3A4, sequence (P08684 whole entry): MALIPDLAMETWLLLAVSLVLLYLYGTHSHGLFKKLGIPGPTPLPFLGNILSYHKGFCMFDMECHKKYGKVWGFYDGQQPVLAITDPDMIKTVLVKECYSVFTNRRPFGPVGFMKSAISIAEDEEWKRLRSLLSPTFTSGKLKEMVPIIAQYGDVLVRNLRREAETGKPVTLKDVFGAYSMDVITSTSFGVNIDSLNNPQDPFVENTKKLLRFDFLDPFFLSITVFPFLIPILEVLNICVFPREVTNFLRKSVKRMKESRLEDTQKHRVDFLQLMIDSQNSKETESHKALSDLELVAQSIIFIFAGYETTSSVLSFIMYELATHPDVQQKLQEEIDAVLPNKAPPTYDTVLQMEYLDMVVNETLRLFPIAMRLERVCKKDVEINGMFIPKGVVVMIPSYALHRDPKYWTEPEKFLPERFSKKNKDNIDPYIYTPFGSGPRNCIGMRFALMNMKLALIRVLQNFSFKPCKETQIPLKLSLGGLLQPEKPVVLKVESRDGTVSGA
Series [5] has as its target T2, Methyl-branched lipid omega-hydroxylase (Mycobacterium tuberculosis (strain ATCC 25618 / H37Rv), UniProt P9WPP3).
T2 sequence (P9WPP3 whole entry): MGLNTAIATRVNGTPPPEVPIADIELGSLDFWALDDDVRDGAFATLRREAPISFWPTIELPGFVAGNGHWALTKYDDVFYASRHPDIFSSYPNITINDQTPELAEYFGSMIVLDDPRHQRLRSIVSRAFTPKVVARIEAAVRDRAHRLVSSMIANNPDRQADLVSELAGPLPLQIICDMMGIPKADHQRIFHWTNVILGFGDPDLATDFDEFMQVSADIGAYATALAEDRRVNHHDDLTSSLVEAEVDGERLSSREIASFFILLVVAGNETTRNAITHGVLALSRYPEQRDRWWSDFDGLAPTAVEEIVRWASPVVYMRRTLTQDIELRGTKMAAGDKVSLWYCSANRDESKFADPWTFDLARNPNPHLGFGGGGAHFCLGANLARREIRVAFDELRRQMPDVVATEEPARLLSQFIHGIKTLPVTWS
Details: species or system C41(DE3).

The target in series [6] is T3, Steroid C26-monooxygenase (Mycobacterium tuberculosis, UniProt P9WPP1).
T3 sequence (P9WPP1 whole entry): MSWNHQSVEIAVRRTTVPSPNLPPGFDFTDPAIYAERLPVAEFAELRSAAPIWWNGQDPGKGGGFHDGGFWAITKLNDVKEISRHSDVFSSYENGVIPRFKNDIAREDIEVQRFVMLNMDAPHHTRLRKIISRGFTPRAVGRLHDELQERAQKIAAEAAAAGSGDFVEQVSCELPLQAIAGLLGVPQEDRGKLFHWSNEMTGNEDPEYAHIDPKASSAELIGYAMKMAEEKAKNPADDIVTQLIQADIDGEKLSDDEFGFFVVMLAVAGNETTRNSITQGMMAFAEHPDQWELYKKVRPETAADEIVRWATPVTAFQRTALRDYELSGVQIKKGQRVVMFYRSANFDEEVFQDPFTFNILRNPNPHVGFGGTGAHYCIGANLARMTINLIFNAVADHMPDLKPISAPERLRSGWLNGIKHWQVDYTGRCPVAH
Details: species or system C41(DE3).

Series [7] relates to CYP1A (relative to Mycobacterium tuberculosis CYP121). Description: in vitro. The settings on record: human, c41(de3).
Description: Selectivity ratio of IC50 for human CYP1A to Kd for Mycobacterium tuberculosis His6-tagged CYP121 expressed in Escherichia coli C41 (DE3) cells

Description for Cytochrome P450 3A4: Inhibition of CYP3A4 in human liver microsomes using midazolam as substrate by LC-MS/MS analysis

As to `Cc1ccc2cc(N)ccc2n1`, the Kd on Mycocyclosin synthase [1] (read-out: Kd) was found to be 400 µM.

With `Oc1ccc(Nc2[nH]nc(-c3ccc(O)cc3)c2-c2ccc(O)cc2)cc1`, on Mycocyclosin synthase [1] (read-out: Kd), the Kd was 15 µM.

On to `Nc1cccc(Cn2cncn2)c1`, for which, on Mycocyclosin synthase [1] (read-out: Kd), the Kd was found to be 1600 µM.

Turning to `COc1ccc(-c2cn[nH]c2N)cc1-c1cccc(N)c1`, the Kd on Mycocyclosin synthase [1] (read-out: Kd) was 68 µM.

For `NC(=O)c1cc(Cl)ccc1N`, at Mycocyclosin synthase [1] (read-out: Kd), the Kd was determined as 3400 µM.

`Nc1cccc(-c2cc(-c3cn[nH]c3N)ccc2OCc2ccccc2)c1`: on Mycocyclosin synthase [1] (read-out: Kd), the Kd is 28 µM.

Turning to `COc1ccc(-c2n[nH]c(N)c2-c2cccc(-c3cccc(N)c3)c2)cc1`, the Kd entry on Mycocyclosin synthase [1] (c41(de3)) is “ND(Insoluble)”; at Mycocyclosin synthase [2] it was 0.034 µM. Besides, in series [3], the MIC90 is no less than 50 µM.

As to `Nc1cc(-c2ccc(O)cc2)n[nH]1`, on Mycocyclosin synthase [1] (read-out: Kd), the Kd stood at 1300 µM.

As to `Nc1cccc(-c2cc(-c3c(-c4ccc(O)cc4)n[nH]c3N)ccc2O)c1`, in [3], the MIC90 was no less than 50 µM.

As to `O=C(Nc1[nH]nc(-c2ccc(O)cc2)c1-c1ccc(O)cc1)c1ccncc1`, the Kd on Mycocyclosin synthase [1] (read-out: Kd) worked out at 600 µM.

`Oc1ccc(CNc2[nH]nc(-c3ccc(O)cc3)c2-c2ccc(O)cc2)cc1`: the Kd at Mycocyclosin synthase [1] (read-out: Kd) is 6.3 µM. Further, the IC50 (in series [4]; against Cytochrome P450 2C9; at Cytochrome P450 2C19; against Cytochrome P450 2D6; at Cytochrome P450 3A4) was greater than 25 µM throughout. For the same compound, the MIC90 in series [3] was no less than 50 µM.

Turning to `Nc1[nH]nc(-c2cccc(O)c2)c1-c1ccc(O)cc1`, the Kd on Mycocyclosin synthase [1] (read-out: Kd) was determined as 60 µM.

For the compound `Oc1ccc(-c2n[nH]c(NCc3c[nH]cn3)c2-c2ccc(O)cc2)cc1`, the Kd on Mycocyclosin synthase [1] (read-out: Kd) was determined as 275 µM.

Consider `Nc1[nH]nc(-c2ccc(O)cc2)c1-c1ccc(O)cc1`, for which the Kd on Mycocyclosin synthase [1] (read-out: Kd) was found to be 40 µM. Besides, the MIC90 in [3] was no less than 50 µM.

In the case of `Oc1ccc(-c2n[nH]c(NCc3ccco3)c2-c2ccc(O)cc2)cc1`, the Kd on Mycocyclosin synthase [1] (read-out: Kd) came out at 24 µM.

In the case of `Oc1ccc(-c2n[nH]c(NCc3ccc(O)c(Br)c3)c2-c2ccc(O)cc2)cc1`, the Kd on Mycocyclosin synthase [1] (read-out: Kd) amounted to 19 µM.

On to `Oc1ccc(-c2n[nH]c(NCc3ccsc3)c2-c2ccc(O)cc2)cc1`, for which the Kd on Mycocyclosin synthase [1] (read-out: Kd) amounted to 18 µM.

On to `O=C(Nc1[nH]nc(-c2ccc(O)cc2)c1-c1ccc(O)cc1)c1ccc(O)cc1`, for which the Kd at Mycocyclosin synthase [1] (read-out: Kd) was 78 µM.

In the case of `Nc1[nH]nc(-c2cccc(F)c2)c1-c1ccc(O)cc1`, on Mycocyclosin synthase [1] (read-out: Kd), the Kd turned out to be 252 µM.

Turning to `Oc1ccc(Nc2cc(-c3ccc(O)cc3)[nH]n2)cc1`, the Kd on Mycocyclosin synthase [1] (read-out: Kd) was 10.6 µM.

As for `Nc1[nH]nc(-c2ccc(O)cc2O)c1-c1ccc(O)cc1`, on Mycocyclosin synthase [1] (read-out: Kd), the Kd was determined as 181 µM.

On to `Oc1ccc(-n2cncn2)cc1`, for which the Kd on Mycocyclosin synthase [1] (read-out: Kd) was 1700 µM.

On to `Oc1ccc(-c2n[nH]c(NCc3ccc4[nH]ccc4c3)c2-c2ccc(O)cc2)cc1`, for which the Kd on Mycocyclosin synthase [1] (read-out: Kd) stood at 60 µM.

Turning to `Oc1ccc(-c2n[nH]c(NCc3ccncc3)c2-c2ccc(O)cc2)cc1`, the dissociation constant (Kd) on Mycocyclosin synthase [1] (read-out: Kd) worked out at 240 µM.

Regarding `Nc1[nH]ncc1-c1ccc(O)cc1`, the Kd on Mycocyclosin synthase [1] (read-out: Kd) turned out to be 1870 µM.

Turning to `Nc1cccc(-c2cccc(-c3c(-c4ccc(O)cc4)n[nH]c3N)c2)c1`, the Kd at Mycocyclosin synthase [1] (read-out: Kd) worked out at 0.74 µM; on Mycocyclosin synthase [2], 0.015 µM; in series [5] it was 0.86 µM; in series [6], 18.4 µM. Besides, the IC50 in series [4] was 21.4 µM; on Cytochrome P450 2C9, greater than 25 µM; on Cytochrome P450 2C19, greater than 25 µM; at Cytochrome P450 2D6 it was greater than 25 µM; on Cytochrome P450 3A4 it was 11.3 µM. Moreover, in series [3], the MIC90 is no less than 50 µM. In series [7], the selectivity ratio came out at 1430.

Regarding `Nc1cccc(-c2cccc(-c3cn[nH]c3N)c2)c1`, the Kd is 140 µM on Mycocyclosin synthase [1] (read-out: Kd) and 14 µM on Mycocyclosin synthase [2]. Further, the IC50 in series [4] is 1.22 µM; against Cytochrome P450 2C9 it was greater than 25 µM; against Cytochrome P450 2C19, greater than 25 µM; against Cytochrome P450 2D6, greater than 25 µM; against Cytochrome P450 3A4 it was greater than 25 µM. Also, the MIC90 in series [3] was no less than 50 µM. Also, the selectivity ratio in [7] worked out at 0.09.

With `Nc1ccc(-c2cccc(-c3cn[nH]c3N)c2)cc1`, binding at Mycocyclosin synthase [2] was characterised by a dissociation constant (Kd) of 230 µM.

Take `Oc1ccc(-c2n[nH]c(NCc3cccc4[nH]ncc34)c2-c2ccc(O)cc2)cc1`: on Mycocyclosin synthase [1] (read-out: Kd), the Kd was found to be 45 µM.

With `O=C(Nc1[nH]nc(-c2ccc(O)cc2)c1-c1ccc(O)cc1)c1ccccc1`, the Kd on Mycocyclosin synthase [1] (read-out: Kd) is 160 µM.

What is called Kd is the equilibrium constant for the complex coming apart. Usually MIC90 stands for the lowest concentration that inhibits either 90% of growth or 90% of the strains tested, depending on the study. One may read the IC50 as the point on the concentration scale where inhibition reaches its midpoint. Lower therefore signals greater potency in that assay.
